# Test results reported in patent publication US20090118332A1, “Therapeutic Agents - 551” (AstraZeneca AB, priority 2006, published 2009).
# Target: T1, human Fatty Acid Synthase (Homo sapiens, UniProt P49327)
# T1 construct: made in house
# Test: Human FAS enzyme assay (decrease in NADPH fluorescence)
# Type: biochemical
# Conditions: % inhibition at a concentration of 100 μmolar
# In short: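 In-house human FAS was preincubated with compound and NADPH for 15 min at room temperature in 0.1 M Tris pH 7.5 with EDTA, glutathione and BSA. Malonyl CoA and acetyl CoA (500 μM and 150 μM in the added mix) were then added for 60 min. IC50 came from time-zero-subtracted NADPH fluorescence (340/460 nm).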
# T1 sequence (P49327 whole entry): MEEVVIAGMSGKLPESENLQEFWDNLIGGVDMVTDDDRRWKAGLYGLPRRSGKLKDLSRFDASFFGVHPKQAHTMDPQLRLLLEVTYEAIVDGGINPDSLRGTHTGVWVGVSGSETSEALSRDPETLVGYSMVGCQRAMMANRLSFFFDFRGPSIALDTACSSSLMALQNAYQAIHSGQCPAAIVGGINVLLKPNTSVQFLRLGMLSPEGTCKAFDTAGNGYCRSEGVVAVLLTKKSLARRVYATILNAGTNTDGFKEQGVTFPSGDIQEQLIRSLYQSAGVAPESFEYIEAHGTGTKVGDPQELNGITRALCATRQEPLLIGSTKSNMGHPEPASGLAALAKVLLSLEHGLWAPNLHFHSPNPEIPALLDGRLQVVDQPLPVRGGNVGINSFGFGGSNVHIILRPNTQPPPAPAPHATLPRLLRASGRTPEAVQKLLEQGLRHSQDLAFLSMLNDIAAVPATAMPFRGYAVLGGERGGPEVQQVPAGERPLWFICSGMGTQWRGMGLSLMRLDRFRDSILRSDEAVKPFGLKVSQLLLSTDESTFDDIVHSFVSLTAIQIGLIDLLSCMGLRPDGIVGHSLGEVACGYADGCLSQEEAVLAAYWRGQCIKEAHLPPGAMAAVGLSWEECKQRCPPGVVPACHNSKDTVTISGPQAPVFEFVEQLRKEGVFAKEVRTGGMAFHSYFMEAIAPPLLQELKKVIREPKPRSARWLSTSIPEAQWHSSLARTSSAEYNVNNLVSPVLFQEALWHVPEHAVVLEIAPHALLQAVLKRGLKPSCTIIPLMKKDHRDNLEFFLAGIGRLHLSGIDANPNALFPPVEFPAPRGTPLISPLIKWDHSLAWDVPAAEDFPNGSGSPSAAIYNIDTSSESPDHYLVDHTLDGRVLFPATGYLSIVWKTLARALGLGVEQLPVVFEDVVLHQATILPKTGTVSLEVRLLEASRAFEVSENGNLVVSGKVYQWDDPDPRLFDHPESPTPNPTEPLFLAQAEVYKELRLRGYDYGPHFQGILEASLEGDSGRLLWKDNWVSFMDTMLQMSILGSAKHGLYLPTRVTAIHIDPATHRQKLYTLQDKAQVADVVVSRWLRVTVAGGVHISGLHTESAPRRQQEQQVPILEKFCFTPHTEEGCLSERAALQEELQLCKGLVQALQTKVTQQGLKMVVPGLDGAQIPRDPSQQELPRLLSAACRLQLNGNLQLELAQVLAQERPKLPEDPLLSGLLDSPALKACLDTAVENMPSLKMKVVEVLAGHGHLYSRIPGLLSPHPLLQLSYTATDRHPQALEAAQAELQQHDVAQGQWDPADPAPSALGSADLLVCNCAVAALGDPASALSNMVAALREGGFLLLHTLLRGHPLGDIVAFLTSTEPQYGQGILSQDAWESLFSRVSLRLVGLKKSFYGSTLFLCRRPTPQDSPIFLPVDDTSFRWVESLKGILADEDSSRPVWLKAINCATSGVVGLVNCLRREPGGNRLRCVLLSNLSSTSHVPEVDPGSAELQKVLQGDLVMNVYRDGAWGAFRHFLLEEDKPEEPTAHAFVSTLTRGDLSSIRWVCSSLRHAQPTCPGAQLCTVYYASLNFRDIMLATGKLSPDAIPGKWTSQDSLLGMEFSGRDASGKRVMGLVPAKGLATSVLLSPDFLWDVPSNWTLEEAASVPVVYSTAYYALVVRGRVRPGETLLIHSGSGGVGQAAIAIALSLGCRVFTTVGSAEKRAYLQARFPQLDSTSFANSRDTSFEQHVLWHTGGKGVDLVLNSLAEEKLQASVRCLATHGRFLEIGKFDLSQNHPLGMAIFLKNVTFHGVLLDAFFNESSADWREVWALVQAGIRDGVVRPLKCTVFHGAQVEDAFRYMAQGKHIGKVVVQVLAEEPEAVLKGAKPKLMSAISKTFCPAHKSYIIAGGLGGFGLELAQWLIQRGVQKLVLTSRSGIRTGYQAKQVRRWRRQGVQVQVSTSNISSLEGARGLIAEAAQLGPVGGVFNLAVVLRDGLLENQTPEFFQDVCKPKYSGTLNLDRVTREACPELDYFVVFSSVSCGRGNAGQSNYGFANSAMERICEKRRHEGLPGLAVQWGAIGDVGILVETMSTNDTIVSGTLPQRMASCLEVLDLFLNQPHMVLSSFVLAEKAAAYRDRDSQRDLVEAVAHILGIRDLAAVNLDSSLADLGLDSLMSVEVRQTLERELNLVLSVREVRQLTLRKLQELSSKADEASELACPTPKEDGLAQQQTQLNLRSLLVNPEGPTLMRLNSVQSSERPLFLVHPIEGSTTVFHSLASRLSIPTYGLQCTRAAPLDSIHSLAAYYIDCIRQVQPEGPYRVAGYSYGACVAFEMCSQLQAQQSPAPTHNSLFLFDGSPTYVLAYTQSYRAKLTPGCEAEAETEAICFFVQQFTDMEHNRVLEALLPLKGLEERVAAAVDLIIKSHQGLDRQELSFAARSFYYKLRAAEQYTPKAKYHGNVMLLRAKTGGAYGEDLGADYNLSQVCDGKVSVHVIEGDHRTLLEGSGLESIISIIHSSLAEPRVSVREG
row,SMILES,inhibition at 100 µM
1,"CC(=O)N(C)CCNC(=O)Nc1cc(C(=O)N2CCC(c3ccc(F)cc3)CC2)ccc1C [Example 352, N-[2-[[5-[4-(4-fluorophenyl)piperidine-1-carbonyl]-2-methyl-phenyl]carbamoylamino]ethyl]-N-methyl-acetamide]",75.6%
2,"CCC(=O)NCCN(C)C(=O)Nc1cc(C(=O)N2CCC(c3ccc(C#N)cc3)CC2)ccc1C [Example 353, N-[2-[[5-[4-(4-cyanophenyl)piperidine-1-carbonyl]-2-methyl-phenyl]carbamoyl-methyl-amino]ethyl]propanamide]",78.4%
3,"Cc1ccc(C(=O)N2CCC(c3ccc(C#N)cc3)CC2)cc1NC(=O)NC(C)c1cccnc1 (stereo not drawn) [Example 354, 1-[5-[4-(4-cyanophenyl)piperidine-1-carbonyl]-2-methyl-phenyl]-3-(1-pyridin-3-ylethyl)urea]",91.3%
4,"Cc1ccc(C(=O)N2CCC(c3ccc(Cl)cc3)CC2)cc1NC(=O)NCc1ccccn1 [Example 355, 1-[5-[4-(4-chlorophenyl)piperidine-1-carbonyl]-2-methyl-phenyl]-3-(pyridin-2-ylmethyl)urea]",82.2%
5,"Cc1ccc(C(=O)N2CCC(c3ccc(C#N)cc3)CC2)cc1NC(=O)NCc1cnn(C)c1 [Example 356, 1-[5-[4-(4-cyanophenyl)piperidine-1-carbonyl]-2-methyl-phenyl]-3-[(1-methylpyrazol-4-yl)methyl]urea]",92.4%
6,"Cc1ccc(C(=O)N2CCC(c3ccc(C#N)cc3)CC2)cc1NC(=O)NC(C)c1ccncc1 (stereo not drawn) [Example 357, 1-[5-[4-(4-cyanophenyl)piperidine-1-carbonyl]-2-methyl-phenyl]-3-(1-pyridin-4-ylethyl)urea]",102%
7,"Cc1ccc(C(=O)N2CCC(c3ccc(C#N)cc3)CC2)cc1NC(=O)NCc1cccc(N2CCOCC2)n1 [Example 358, 1-[5-[4-(4-cyanophenyl)piperidine-1-carbonyl]-2-methyl-phenyl]-3-[(6-morpholin-4-ylpyridin-2-yl)methyl]urea]",93.2%
8,"Cc1ccc(C(=O)N2CCC(c3ccc(Cl)cc3)CC2)cc1NC(=O)NC(C)C [Example 359, 1-[5-[4-(4-chlorophenyl)piperidine-1-carbonyl]-2-methyl-phenyl]-3-propan-2-yl-urea]",92.1%
9,"Cc1ccc(C(=O)N2CCC(c3ccc(S(N)(=O)=O)cc3)CC2)cc1NC(=O)NC(C)C [Example 360, 1-[2-methyl-5-[4-(4-sulfamoylphenyl)piperidine-1-carbonyl]phenyl]-3-propan-2-yl-urea]",97.3%
10,"CNC(=O)Nc1cc(C(=O)N2CCC(c3ccc(C#N)cc3)CC2)ccc1C [Example 361, 1-[5-[4-(4-cyanophenyl)piperidine-1-carbonyl]-2-methyl-phenyl]-3-methyl-urea]",101%
11,"CSc1ccc(C(=O)N2CCC(c3ccc(C#N)cc3)CC2)cc1NC(=O)NC(C)C [Example 362, 3-[5-[4-(4-cyanophenyl)piperidine-1-carbonyl]-2-methylsulfanylphenyl]-1-propan-2-ylurea]",87.9%
12,"CSc1ccc(C(=O)N2CCC(c3ccc(C#N)cc3)CC2)cc1NC(=O)NCc1ccccc1 [Example 363, 3-benzyl-1-[5-[4-(4-cyanophenyl)piperidine-1-carbonyl]-2-methylsulfanylphenyl]urea]",84.7%
13,"CC(C)NC(=O)Nc1cc(C(=O)N2CCC(c3ccc(C#N)cc3)CC2)ccc1S(C)(=O)=O [Example 364, 3-[5-[4-(4-cyanophenyl)piperidine-1-carbonyl]-2-methylsulfonylphenyl]-1-propan-2-ylurea]",84.1%
14,"COCc1ccc(C(=O)N2CCC(c3ccc(C#N)cc3)CC2)cc1NC(=O)NC(C)C [Example 365, 3-[5-[4-(4-cyanophenyl)piperidine-1-carbonyl]-2-(methoxymethyl)phenyl]-1-propan-2-ylurea]",82.5%
15,"Cc1ccc(C(=O)N2CCC(c3ccc(C#N)cc3)CC2)cc1NC(N)=O [Example 366, [5-[4-(4-cyanophenyl)piperidine-1-carbonyl]-2-methylphenyl]urea]",101%
